Measured values: patent US7494992B2, “Antiparasitic terpene alkaloids” (Pfizer Inc., priority 2003, dated 2009)

Target: fly head P2 membranes
Test: radiometric assay: displacement of 3H-dihydro-CJ-12662 from fly head P2 membranes (Ki; also single-concentration high throughput screen, % inhibition)
Parameters: species or system Lucilia sericata
Details: radioligand binding to fly head P2 membranes; value used to calculate Ki values
Procedure: A further aspect of the invention is a novel binding assay which is used to assess the potential antiparasitic activity of these compounds by measuring how tightly they bind to membranes purified from parasite homogenates. The affinity is calculated according to how readily the compounds of the present invention displace a radiolabeled, reduced analogue of (1S,2R,4aS,5R,8R,8aR)-2-(acetyloxy)-8a-hydroxy-3,8-dimethyl-5-(1-methylethenyl)-1,2,4a,5,6,7,8,8a-octahydronaphthalen-1-yl(2S,3aR,9bR)-6-chloro-9b-hydroxy-5-methyl-1,2,3,3a,5,9b-hexahydropyrrolo[2,3-c][2,1]benzoxazine-2-carboxylate from these membranes.
The in vitro assay for measurement of compounds which displace ^3H-dihydro-(1S,2R,4aS,5R,8R,8aR)-2-(acetyloxy)-8a-hydroxy-3,8-dimethyl-5-(1-methylethenyl)-1,2,4a,5,6,7,8,8a-octahydronaphthalen-1-yl(2S,3aR,9bR)-6-chloro-9b-hydroxy-5-methyl-1,2,3,3a,5,9b-hexahydropyrrolo[2,3-c][2,1]benzoxazine-2-carboxylate from fly head P2 membranes represents another aspect of the invention and was performed as follows. […]

For “^3H-dihydro-(1S,2R,4aS,5R,8R,8aR)-2-(acetyloxy)-8a-hydroxy-3,8-dimethyl-5-(1-methylethenyl)-1,2,4a,5,6,7,8,8a-octahydronaphthalen-1-yl(2S,3aR,9bR)-6-chloro-9b-hydroxy-5-methyl-1,2,3,3a,5,9b-hexahydropyrrolo[2,3-c][2,1]benzoxazine-2-carboxylate [^3H-dihydro-CJ-12662]”, the Kd was 7 nM.
